Like-named read-outs stand apart in the source and are kept apart here.
Columns and labels:
[1] = system: HCV genotype 1b replicon cells; assay: Standard 3-day HCV replicon assay; type: cell-based; conditions: Hepatitis C virus, 72 h, 3 days, 5% fetal bovine serum
[2] = system: MDCK cells; conditions: MDCK cells, 10,000 nM
[3] = system: HCV genotype 5a NS5A replicon cells; assay: Standard 3-day HCV replicon assay; type: cell-based; conditions: Hepatitis C virus, 72 h
[4] = system: HCV genotype 2a NS5A replicon cells; assay: Standard 3-day HCV replicon assay; type: cell-based; conditions: Hepatitis C virus, 72 h
[5] = system: HCV genotype 3a NS5A replicon cells; assay: Standard 3-day HCV replicon assay; type: cell-based; conditions: Hepatitis C virus, 72 h
[6] = system: HCV 3a NS5A Y93H replicon cells; type: cell-based; conditions: read-out: Mean EC50 (nM) ±SD; HCV genotype 3a, variant Y93H*; replicon cells from cell passage assay
[7] = system: human rhinovirus 16 (HRV-16); assay: Virus-cell protection assay; type: cell-based; conditions: Rhinovirus A, HRV16; Virus HRV-16, cell line HeLa
[8] = system: HCV 1b Y93H replicon; assay: microbe, parasite or virus in culture; type: cell-based
Description: (§1) The susceptibility degrees of WT replicons in the transient assay were similar to the values obtained from a cell assay using the stable HCV replicons.

[9] = system: HCV 2a NS5A Y93H replicon; assay: microbe, parasite or virus in culture; type: cell-based
Description: as §1

[10] = system: HCV 1b WT replicon; assay: microbe, parasite or virus in culture; type: cell-based
Description: as §1

[11] = system: HCV 4a NS5A WT replicon; assay: microbe, parasite or virus in culture; type: cell-based
Description: as §1

[12] = system: HCV 1a Q30K replicon; assay: microbe, parasite or virus in culture; type: cell-based
Description: as §1

[13] = system: HCV 5a NS5A WT replicon; assay: microbe, parasite or virus in culture; type: cell-based
Description: as §1

[14] = system: HCV 1a Q30R replicon; assay: microbe, parasite or virus in culture; type: cell-based
Description: as §1

[15] = system: HCV 1a WT replicon; assay: microbe, parasite or virus in culture; type: cell-based
Description: as §1

[16] = system: HCV 1b L31V replicon; assay: microbe, parasite or virus in culture; type: cell-based
Description: as §1

[17] = system: HCV 1a Y93N replicon; assay: microbe, parasite or virus in culture; type: cell-based
Description: as §1

[18] = system: HCV 6a NS5A WT replicon; assay: microbe, parasite or virus in culture; type: cell-based
Description: as §1

[19] = system: HCV 1b L31F + Y93H replicon; assay: microbe, parasite or virus in culture; type: cell-based
Description: as §1

[20] = system: HCV 4a NS5A P58L replicon; assay: microbe, parasite or virus in culture; type: cell-based
Description: as §1

[21] = Hepatitis C virus, read-out: Mean EC50 (nM) ±SD

`COC(=O)N[C@H](C(=O)N1CCC[C@H]1c1ncc(-c2ccc3cc(-c4ccc5nc([C@@H]6CCCN6C(=O)[C@@H](NC(=O)OC)C(C)C)[nH]c5c4)ccc3c2)[nH]1)C(C)C` [ASC16, Ravidasvir] showed an EC50 ([1]; read-out: EC50) of 0.015 ng/mL, an EC50 ([1]; read-out: EC50 (nM) Mean ± SD) of 0.02 ± 0.002 nM and an EC90 ([1]; read-out: EC90) of 0.02 ng/mL. The EC90 ([1]; read-out: EC90 (nM) Mean ± SD) was 0.03 ± 0.004 nM, the “cytotoxicity at the highest test concentration” value [2] was “significant cytotoxicity” and the EC50 [3] was 0.03 ng/mL. The EC90 [3] was 0.1 ng/mL, the EC50 ([3]; read-out: EC50 (nM) Mean ± SD) was 0.04 ± 0.01 nM and the EC90 ([3]; read-out: EC90 (nM) Mean ± SD) was 0.12 ± 0.02 nM. For the same compound, the EC50 [4] was 0.12 ng/mL, the EC90 [4] was 0.38 ng/mL and the EC50 ([4]; read-out: EC50 (nM) Mean ± SD) was 0.14 ± 0.03 nM. For the same compound, the EC90 ([4]; read-out: EC90 (nM) Mean ± SD) was 0.45 ± 0.1 nM, the EC50 [5] was 0.95 ng/mL and the EC90 [5] was 2.8 ng/mL. The EC50 ([5]; read-out: EC50 (nM) Mean ± SD) was 1.14 ± 0.3 nM, the EC90 ([5]; read-out: EC90 (nM) Mean ± SD) was 3.35 ± 1.3 nM and the EC50 [6] was 1040 nM. It also gave an EC50 [7] of over 3.3 µM, a Fold change ([8]; HCV genotype 1b, variant Y93H, EC50 relative to WT) of 81 and an EC50 [8, 21] of 0.9 ± 0.06 nM. It also gave a Fold change ([9]; HCV genotype 2a, variant Y93H, EC50 relative to WT) of 816, an EC50 [9, 21] of 96 ± 23 nM and a Fold change ([10]; HCV genotype 1b, WT, EC50 relative to WT) of 1. The EC50 [10, 21] was 0.01 ± 0.003 nM, the Fold change ([11]; HCV genotype 4a, WT, EC50 relative to WT) was 1 and the EC50 [11, 21] was 0.02 ± 0.004 nM. The Fold change ([12]; HCV genotype 1a, variant Q30K, EC50 relative to WT) was 2,965, the EC50 [12, 21] was 87 ± 17 nM and the Fold change ([13]; HCV genotype 5a, WT, EC50 relative to WT) was 1. The EC50 [13, 21] was 0.08 ± 0.04 nM, the Fold change ([14]; HCV genotype 1a, variant Q30R, EC50 relative to WT) was 168 and the EC50 [14, 21] was 4.9 ± 1.3 nM. It also gave a Fold change ([15]; HCV genotype 1a, WT, EC50 relative to WT) of 1, an EC50 [15, 21] of 0.03 ± 0.002 nM and a Fold change ([16]; HCV genotype 1b, variant L31V, EC50 relative to WT) of 85. The EC50 [16, 21] was 0.9 ± 0.1 nM, the Fold change ([17]; HCV genotype 1a, variant Y93N, EC50 relative to WT) was 3,876 and the EC50 ([17]; Hepatitis C virus, read-out: Mean EC50 (nM) ±SD, HCV genotype 1a, variant Y93N) was over 100 nM. For the same compound, the EC50 ([17]; read-out: Mean EC50 (nM) ±SD, HCV genotype 1a, variant Y93N) was 113 ± 7.3 nM, the Fold change ([18]; HCV genotype 6a, WT, EC50 relative to WT) was 1 and the EC50 [18, 21] was 0.2 ± 0.04 nM. The Fold change ([19]; HCV genotype 1b, variant L31F + Y93H, EC50 relative to WT) was 2,541, the EC50 [19, 21] was 28 ± 5.4 nM and the Fold change ([20]; HCV genotype 4a, variant P58L, EC50 relative to WT) was 197. For the same compound, the EC50 [20, 21] was 3 ± 0.09 nM.

— patent US20210038681A1, “PHARMACEUTICAL COMPOSITION FOR TREATING VIRAL HEPATITIS C” (priority 2018, published 2021)
